Values of other authors, collected in patent publication US6488942B1, “Disinfecting agent” (DDG Dental Devices GmbH, priority 1997, dated 2002).

solubility in water: soluble in water
SMILES: CC(=O)O.CC(=O)O.NC(=N\CCCCCC/N=C(N)/N=C(\N)Nc1ccc(Cl)cc1)/N=C(\N)Nc1ccc(Cl)cc1 [diacetate, Chlorhexidine diacetate]
